Patent publication US10808018B2, “Erythropoietin-derived peptides and methods of protecting cells from oxidative damage induced by reactive oxygen species” (SYLUS CO., LTD., priority 2017, dated 2020)
Peptide text beside a SMILES is read from it.

How the values were obtained:
PC12 cells = test: Cell proliferation side effect, MTS assay; type: cell-based; conditions: peptide 1 pM to 0.5 nM, 48 hours, FIG. 4
Experimental: Side effects such as cell proliferation were determined for the three peptides (ML1-L2, ML1-K2, and ML1-R2) prepared in Example 4.
In detail, to determine cell proliferation degree, an MTS assay (CellTiter 96 Aqueous One Solution Cell Proliferation Assay, Promega, Madison, Wis., USA) was performed. […] The initial number of cells (0 hour) and the number of cells after 48 hours were counted. Intracellular soluble formazan produced by cell reduction was determined by recording absorbance of each 96-well plate at a wavelength of 490 nm using a VERSA MAX.

[1] = molecular target: T1, Soluble mouse EPOR chimera proteins (erythropoietin receptor) (Mus musculus, UniProt P14753); test: Surface plasmon resonance (SPR) binding affinity to erythropoietin receptor; conditions: for Ka: association rate
T1 construct: Soluble mouse EPOR chimera proteins; purchased R&D Systems
T1 sequence (P14753 25-249 limits assumed): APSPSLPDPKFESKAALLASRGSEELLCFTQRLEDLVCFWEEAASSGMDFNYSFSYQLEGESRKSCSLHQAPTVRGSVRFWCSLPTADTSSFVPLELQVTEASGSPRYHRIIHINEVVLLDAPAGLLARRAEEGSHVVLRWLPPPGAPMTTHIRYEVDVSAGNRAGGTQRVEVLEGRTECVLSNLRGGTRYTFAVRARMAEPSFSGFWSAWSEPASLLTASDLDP
From the text: The SPR technique is to measure interactions between biomolecules in real-time by using an optical principle without specific labeling, and is a system analyzing affinity between two molecules and kinetics, i.e., an association rate (Ka) and a dissociation rate (Kd). In detail, real-time SPR analysis may be performed using Reichert SPR Biosensor SR […] instrument (Reichert Inc., NY, USA). Soluble mouse EPOR chimera proteins (R&D Systems, Minneapolis, Minn., USA) were covalently linked to a carboxymethylated dextran matrix-coated chip (BR-1005-39, Pharmacia Biosensor AB) by an amine coupling procedure using an amine coupling kit (BR-1000-50, GE Healthcare, USA) in accordance with manufacturer's instructions. Each 5 pM, 2.5 pM, and 1.25 pM of the peptide samples of the present disclosure and scrambled peptides were applied at a flow rate of 5 μl/minute, and the experiments were independently performed in duplicate. For signal normalization, DMSO was applied at a flow rate of 5 μl/minute. After each binding cycle, the sensor chip was regenerated by injecting 25 mM of acetic acid at a flow rate of 20 μl/minute.

Row | Compound | cell proliferation rate (side effect) (PC12 cells) | Ka ([1]; Table 9) | dissociation rate constant (koff) ([1]; Table 9) | Ka ([1]; Table 8) | dissociation rate constant (koff) ([1]; Table 8)
1 | CC(C)C[C@H](NC(=O)CNC(=O)[C@H](CO)NC(=O)[C@@H](NC(=O)[C@H](C)NC(=O)[C@H](CCCCN)NC(=O)[C@H](CC(=O)O)NC(=O)[C@@H](NC(=O)[C@H](Cc1c[nH]cn1)NC(=O)[C@@H](N)CCCCN)C(C)C)C(C)C)C(=O)N[C@@H](CCCNC(=N)N)C(=O)N[C@@H](CO)C(=O)N[C@@H](CC(C)C)C(=O)N[C@H](C(=O)N[C@H](C(=O)N[C@@H](CCCCN)C(=O)O)[C@@H](C)O)[C@@H](C)O [ML1-K2] (H-KHVDKAVSGLRSLTTK-OH) | no side effect of cell proliferation | – | – | – | –
2 | CC(C)C[C@H](NC(=O)CNC(=O)[C@H](CO)NC(=O)[C@@H](NC(=O)[C@H](C)NC(=O)[C@H](CCCCN)NC(=O)[C@H](CC(C)C)NC(=O)[C@@H](NC(=O)[C@H](Cc1c[nH]cn1)NC(=O)[C@H](CC(C)C)NC(=O)[C@H](CCC(N)=O)NC(=O)[C@@H](N)CC(C)C)C(C)C)C(C)C)C(=O)N[C@@H](CC(C)C)C(=O)N[C@H](C(=O)N[C@@H](Cc1c[nH]cn1)C(=O)N[C@H](C(=O)N[C@H](C(=O)N[C@@H](CC(C)C)C(=O)N[C@@H](CC(C)C)C(=O)N[C@@H](CCCCN)C(=O)N[C@@H](C)C(=O)N[C@@H](CC(C)C)C(=O)NCC(=O)O)[C@@H](C)O)[C@@H](C)O)[C@@H](C)O [ML1-H1] (H-LQLHVLKAVSGLLTHTTLLKALG-OH; N-terminus and C-terminus assumed) | – | 1.01E+03 | 7.94E−03 | – | –
3 | CC(C)C[C@H](NC(=O)CNC(=O)[C@@H](N)CO)C(=O)N[C@@H](CCCNC(=N)N)C(=O)N[C@@H](CO)C(=O)N[C@@H](CC(C)C)C(=O)N[C@H](C(=O)N[C@H](C(=O)N[C@@H](CC(C)C)C(=O)N[C@@H](CC(C)C)C(=O)N[C@@H](CCCNC(=N)N)C(=O)N[C@@H](C)C(=O)N[C@@H](CC(C)C)C(=O)NCC(=O)O)[C@@H](C)O)[C@@H](C)O [ML5] (H-SGLRSLTTLLRALG-OH; N-terminus and C-terminus assumed) | – | – | – | 3.04 × 10^2 | 0.1 × 10^−3
4 | CC(C)C[C@H](NC(=O)CNC(=O)[C@H](CO)NC(=O)[C@@H](NC(=O)[C@H](CCCNC(=N)N)NC(=O)[C@H](CCCCN)NC(=O)[C@H](CC(=O)O)NC(=O)[C@@H](NC(=O)[C@H](Cc1c[nH]cn1)NC(=O)[C@H](CCCNC(=N)N)NC(=O)[C@H](CCC(N)=O)NC(=O)[C@@H](N)CC(C)C)C(C)C)C(C)C)C(=O)N[C@@H](CCCNC(=N)N)C(=O)N[C@@H](CO)C(=O)N[C@@H](CC(C)C)C(=O)N[C@H](C(=O)N[C@H](C(=O)N[C@@H](CC(C)C)C(=O)N[C@@H](CC(C)C)C(=O)N[C@@H](CCCNC(=N)N)C(=O)N[C@@H](C)C(=O)N[C@@H](CC(C)C)C(=O)NCC(=O)O)[C@@H](C)O)[C@@H](C)O [ML1-C2] (H-LQRHVDKRVSGLRSLTTLLRALG-OH; N-terminus and C-terminus assumed) | – | 1.59E+03 | 0.01876 | – | –
5 | CC(C)C[C@H](NC(=O)CNC(=O)[C@H](C)N)C(=O)N[C@@H](CCCNC(=N)N)C(=O)N[C@@H](CO)C(=O)N[C@@H](CCCNC(=N)N)C(=O)N[C@@H](C)C(=O)N[C@@H](Cc1c[nH]cn1)C(=O)N[C@@H](CC(C)C)C(=O)N[C@@H](CCCNC(=N)N)C(=O)N[C@@H](CCCNC(=N)N)C(=O)N[C@@H](C)C(=O)N[C@@H](CC(C)C)C(=O)N[C@@H](C)C(=O)O [ML5-1] (H-AGLRSRAHLRRALA-OH; N-terminus and C-terminus assumed) | – | – | – | 4.42 × 10^2 | 3.46 × 10^−2
6 | CC[C@H](C)[C@H](NC(=O)[C@H](C)NC(=O)[C@H](CCC(=O)O)NC(=O)[C@H](CCCCN)NC(=O)[C@H](CCC(N)=O)NC(=O)[C@H](C)NC(=O)CNC(=O)[C@H](CC(C)C)NC(=O)[C@H](C)NC(=O)[C@H](CCCNC(=N)N)NC(=O)[C@H](CC(C)C)NC(=O)[C@@H](NC(=O)[C@H](Cc1c[nH]cn1)NC(=O)[C@@H](NC(=O)[C@H](CC(C)C)NC(=O)[C@@H](NC(=O)[C@H](CCCCN)NC(=O)[C@H](CC(C)C)NC(=O)CNC(=O)[C@H](CO)NC(=O)[C@@H](NC(=O)[C@H](C)NC(=O)[C@H](CCCCN)NC(=O)[C@@H](N)CCCCN)C(C)C)[C@@H](C)O)[C@@H](C)O)[C@@H](C)CC)C(=O)O [ML4-1] (H-KKAVSGLKTLTHILRALGAQKEAI-OH; N-terminus and C-terminus assumed) | – | – | – | 4.10 × 10^2 | 1.20 × 10^−2
7 | CSCC[C@H](NC(=O)[C@@H](NC(=O)[C@H](Cc1c[nH]cn1)NC(=O)[C@H](CO)NC(=O)[C@H](CC(C)C)NC(=O)[C@H](CC(C)C)NC(=O)CNC(=O)[C@H](CO)NC(=O)[C@@H](NC(=O)[C@H](CCCNC(=N)N)NC(=O)[C@H](CCCCN)NC(=O)[C@H](CC(C)C)NC(=O)[C@@H](NC(=O)[C@H](Cc1c[nH]cn1)NC(=O)[C@H](CC(C)C)NC(=O)[C@H](CCC(N)=O)NC(=O)[C@@H](N)CC(C)C)C(C)C)C(C)C)[C@@H](C)O)C(=O)N[C@@H](CC(C)C)C(=O)N[C@@H](CC(C)C)C(=O)N[C@@H](CCCCN)C(=O)N[C@@H](C)C(=O)N[C@@H](CC(C)C)C(=O)NCC(=O)O [ML1-1] (H-LQLHVLKRVSGLLSHTMLLKALG-OH; N-terminus and C-terminus assumed) | – | – | – | 5.55 × 10^3 | 5.9 × 10^−3
8 | CC(C)C[C@H](NC(=O)[C@H](C)NC(=O)[C@H](CCCNC(=N)N)NC(=O)[C@H](CC(C)C)NC(=O)[C@H](CC(C)C)NC(=O)[C@@H](NC(=O)[C@@H](NC(=O)[C@H](CC(C)C)NC(=O)[C@H](CO)NC(=O)[C@H](CCCNC(=N)N)NC(=O)[C@H](CC(C)C)NC(=O)CNC(=O)[C@H](CO)NC(=O)[C@@H](NC(=O)[C@H](C)NC(=O)[C@H](CCCCN)NC(=O)[C@@H](N)CC(=O)O)C(C)C)[C@@H](C)O)[C@@H](C)O)C(=O)O [ML8] (H-DKAVSGLRSLTTLLRAL-OH; N-terminus and C-terminus assumed) | – | – | – | 1.8 × 10^2 | 0.8 × 10^−1
9 | CC(C)C[C@H](NC(=O)[C@H](CCC(=O)O)NC(=O)[C@H](CCCNC(=N)N)NC(=O)[C@H](CC(C)C)NC(=O)[C@H](CC(C)C)NC(=O)[C@H](CCCCN)NC(=O)[C@@H](NC(=O)[C@H](CC(C)C)NC(=O)[C@H](CO)NC(=O)[C@H](CCCNC(=N)N)NC(=O)[C@H](CC(C)C)NC(=O)CNC(=O)[C@H](CO)NC(=O)[C@H](CCC(=O)O)NC(=O)[C@H](C)NC(=O)[C@H](CCCCN)NC(=O)[C@H](CCC(N)=O)NC(=O)[C@@H](NC(=O)[C@H](Cc1c[nH]cn1)NC(=O)[C@@H](N)CCCNC(=N)N)C(C)C)[C@@H](C)O)C(=O)O [ML2-1] (H-RHVQKAESGLRSLTKLLREL-OH; N-terminus and C-terminus assumed) | – | – | – | 3.1 × 10^2 | 4.1 × 10^−3
10 | CC[C@H](C)[C@H](NC(=O)[C@H](CCSC)NC(=O)[C@@H](NC(=O)[C@H](CC(C)C)NC(=O)[C@@H](NC(=O)[C@H](CC(C)C)NC(=O)[C@H](CC(C)C)NC(=O)CNC(=O)[C@H](CO)NC(=O)[C@@H](NC(=O)[C@H](C)NC(=O)[C@H](CCCCN)NC(=O)[C@H](CC(C)C)NC(=O)[C@@H](NC(=O)[C@H](Cc1c[nH]cn1)NC(=O)[C@H](CC(C)C)NC(=O)[C@H](CCC(N)=O)NC(=O)[C@@H](N)CC(C)C)C(C)C)C(C)C)[C@@H](C)O)[C@@H](C)O)C(=O)N[C@@H](CCCNC(=N)N)C(=O)N[C@@H](CCCNC(=N)N)C(=O)N[C@@H](C)C(=O)N[C@@H](CC(C)C)C(=O)NCC(=O)O [ML1-H2] (H-LQLHVLKAVSGLLTLTMIRRALG-OH; N-terminus and C-terminus assumed) | – | 3434.3 | 1.05E−03 | – | –
11 | CC[C@H](C)[C@H](NC(=O)[C@H](CCSC)NC(=O)[C@H](C)NC(=O)[C@H](CC(C)C)NC(=O)[C@@H](NC(=O)[C@H](CCCNC(=N)N)NC(=O)[C@H](CC(C)C)NC(=O)CNC(=O)[C@H](C)NC(=O)[C@@H](NC(=O)[C@H](C)NC(=O)[C@H](CCCCN)NC(=O)[C@H](CC(C)C)NC(=O)[C@@H](NC(=O)[C@H](Cc1c[nH]cn1)NC(=O)[C@H](CC(C)C)NC(=O)[C@H](CCC(N)=O)NC(=O)[C@@H](N)CC(C)C)C(C)C)C(C)C)[C@@H](C)O)C(=O)N[C@@H](CCCNC(=N)N)C(=O)N[C@@H](CCCNC(=N)N)C(=O)N[C@@H](C)C(=O)N[C@@H](CC(C)C)C(=O)N[C@@H](C)C(=O)O [ML1-H3] (H-LQLHVLKAVAGLRTLAMIRRALA-OH; N-terminus and C-terminus assumed) | – | 4157.6 | 4.77E−03 | – | –
12 | CC(C)[C@H](NC(=O)[C@H](CCCNC(=N)N)NC(=O)[C@@H](N)[C@@H](C)O)C(=O)N[C@@H](CC(N)=O)C(=O)N[C@@H](Cc1ccc(O)cc1)C(=O)N[C@@H](CCC(N)=O)C(=O)N[C@@H](C)C(=O)N[C@@H](Cc1c[nH]c2ccccc12)C(=O)N[C@@H](CCCCN)C(=O)N[C@@H](CCCNC(=N)N)C(=O)O [ML3-1] (H-TRVNYQAWKR-OH; N-terminus and C-terminus assumed) | – | – | – | 3.08 × 10^3 | 1.3 × 10^−2
